One experiment relates to 22Rv1 Cell. Put plainly: 22RV1 cell growth inhibition, CellTiter-Glo, 72 h. The experiment is classed as cell-based. As to conditions: 22RV1 cells, 72 h culture. The protocol:
(§1) 22RV1 or vCap cells were cultured in RPMI-1640 medium (10% fetal bovine serum and 100 units (per mL) of penicillin/streptomycin dual antibody were added to RPMI-1640) in a 37° C., 5% CO2 cell incubator. Cells at the logarithmic growth phase were inoculated onto a 96-well cell culture plate at 5×10^3 cells/100 μL/well and cultured overnight. Solutions of different concentrations of an active compound in DMSO were added, with the final concentration being 0.5% DMSO. The positive control was 1% TweeN2O, and the negative control was 0.5% DMSO. After 72 h of culture, an equal volume of CellTiter-Glo was added to each well, and the mixtures were mixed homogeneously by shaking for 2 min. The plate was let stand at room temperature for 10 min, and fluorescence signal values were read using a microplate reader. Data were analyzed using Prism 7.0 and graphs were generated. The values are shown as mean f SEM (N=2). […] The X-axis represents compound concentration (μM), and the Y-axis represents % inhibition.
A general note: ATP-based viability assays read luminescence as a measure of living cells.

For a further experiment, the system named is vCap Cell. As to the kind of experiment: vCap cell growth inhibition, CellTiter-Glo, 72 h. The experiment is classed as cell-based. As to conditions: vCap cells, 72 h culture. How it is done:
as §1

Consider `COC(=O)N1Cc2cc(C3CCC(OC)CC3)cc(N3CCCc4cc(-c5cnn(C)c5)c(C(F)F)cc43)c2C1` (stereo not drawn) [Compound M001204], for which the IC50 in the experiment on 22Rv1 Cell and in the experiment with vCap Cell was > 1000 nM in each case.

Regarding `COCCN1CC(c2cc3c(c(N4CCCc5cc(-c6cnn(C)c6)c(C(F)F)cc54)c2)CN(C(C)=O)C3)CCC1=O` (stereo not drawn) [Compound M001225], the half-inhibitory concentration (IC50) (usually the midpoint of a concentration-inhibition curve) is > 1000 nM in the experiment on 22Rv1 Cell (Homo sapiens, 22Rv1, 72 h) and < 1000 nM in the experiment on vCap Cell (Homo sapiens, VCaP, 72 h).

Take `CC(=O)N1Cc2cc(N3CCSCC3)cc(N3CCCc4cc(-c5cnn(C)c5)c(C(F)F)cc43)c2C1` [Compound M001004]: the IC50 with 22Rv1 Cell (Homo sapiens, 22Rv1, 72 h) was > 1000 nM; with vCap Cell (Homo sapiens, VCaP, 72 h) it was > 1000 nM.

With `COC(=O)N1CCCc2cccc(N3CCCc4cc(-c5cnn(C)c5)c(C(F)F)cc43)c2C1` [Compound M001210], the IC50 in the experiment on 22Rv1 Cell (Homo sapiens, 22Rv1, 72 h) was > 1000 nM; in the experiment with vCap Cell (Homo sapiens, VCaP, 72 h), > 1000 nM.

Regarding `CNC(=O)N1Cc2cc(C3CCN(C)C(=O)C3)cc(N3CCCc4cc(-c5cnn(C)c5)c(C(F)F)cc43)c2C1` (stereo not drawn) [Compound M001119], the IC50 with 22Rv1 Cell (Homo sapiens, 22Rv1, 72 h) was > 1000 nM; in the experiment with vCap Cell (Homo sapiens, VCaP, 72 h) it was > 1000 nM.

For the compound `CC(=O)N1Cc2cc(C3CCN(CC#N)CC3)cc(N3CCCc4cc(-c5cnn(C)c5)c(C(F)F)cc43)c2C1` [Compound M001074], the IC50 is < 1000 nM with 22Rv1 Cell (Homo sapiens, 22Rv1, 72 h) and < 1000 nM in the experiment with vCap Cell (Homo sapiens, VCaP, 72 h).

As for `CC(=O)N1Cc2cc(C3CCN(C4COC4)CC3)cc(N3CCCc4cc(-c5cnn(C)c5)c(C(F)F)cc43)c2C1` [Compound M001056], the concentration for half-maximal inhibition (IC50) was > 1000 nM in the experiment with 22Rv1 Cell (Homo sapiens, 22Rv1, 72 h) and > 1000 nM in the experiment with vCap Cell (Homo sapiens, VCaP, 72 h).

As to `CC(=O)N1Cc2cc(C3CCCN(C)C3)cc(N3CCCc4cc(-c5cnn(C)c5)c(C(F)F)cc43)c2C1` (stereo not drawn) [Compound M001049], the IC50 is > 1000 nM in the experiment with 22Rv1 Cell (Homo sapiens, 22Rv1, 72 h) and > 1000 nM in the experiment on vCap Cell (Homo sapiens, VCaP, 72 h).

`CON1CCC(c2cc3c(c(N4CCCc5cc(-c6cnn(C)c6)c(C(F)F)cc54)c2)CN(C(=O)OC(C)(C)C)CC3)CC1` [Compound M001274, tert-butyl 8-[7-(difluoromethyl)-6-(1-methylpyrazol-4-yl)-3,4-dihydro-2H-quinolin-1-yl]-6-(1-methoxypiperidin-4-yl)-3,4-dihydro-1H-isoquinoline-2-carboxylate]: the concentration for half-maximal inhibition (IC50) in the experiment on 22Rv1 Cell (Homo sapiens, 22Rv1, 72 h) was > 1000 nM; in the experiment with vCap Cell (Homo sapiens, VCaP, 72 h), > 1000 nM.

For `CC(=O)N1Cc2cc(C3CCC([S+](C)[O-])CC3)cc(N3CCCc4cc(-c5cnn(C)c5)c(C(F)F)cc43)c2C1` (stereo not drawn) [Compound M001323], the IC50 with 22Rv1 Cell (Homo sapiens, 22Rv1, 72 h) is > 1000 nM; in the experiment with vCap Cell (Homo sapiens, VCaP, 72 h), < 1000 nM.

On to `CNC(=O)N1CCc2cc(C3CCN(CC#N)CC3)cc(N3CCCc4cc(-c5cnn(C)c5)c(C(F)F)cc43)c2C1` [Compound M001070], for which the IC50 was > 1000 nM with 22Rv1 Cell (Homo sapiens, 22Rv1, 72 h) and > 1000 nM in the experiment with vCap Cell (Homo sapiens, VCaP, 72 h).

For the compound `CNC(=O)N1CCc2cc(Cl)cc(N3CCCc4cc(-c5cnn(C)c5)c(C(F)F)cc43)c2C1` [Compound M001209], the IC50 in the experiment with 22Rv1 Cell (Homo sapiens, 22Rv1, 72 h) is > 1000 nM; with vCap Cell (Homo sapiens, VCaP, 72 h) it was > 1000 nM.

Consider `CC(=O)N1Cc2cc(C3CCC([S@](C)(=N)=O)CC3)cc(N3CCCc4cc(-c5cnn(C)c5)c(C(F)F)cc43)c2C1` (stereo in doubt) [Compound M001330], for which the IC50 in the experiment on 22Rv1 Cell (Homo sapiens, 22Rv1, 72 h) is > 1000 nM; with vCap Cell (Homo sapiens, VCaP, 72 h) it was > 1000 nM.

As for `CCOC(=O)N1CCc2cc(Cl)cc(N3CCCc4cc(-c5cnn(C)c5)c(C(F)F)cc43)c2C1` [Compound M001228], the half-maximal inhibitory concentration (IC50) is > 1000 nM with 22Rv1 Cell (Homo sapiens, 22Rv1, 72 h) and > 1000 nM in the experiment with vCap Cell (Homo sapiens, VCaP, 72 h).

`CC(=O)N1Cc2cc(C3CCN(C)CC3)cc(N3CCCc4cc(-c5cnn(C)c5)c(C(F)F)cc43)c2C1` [Compound M001041]: the IC50 in the experiment on 22Rv1 Cell (Homo sapiens, 22Rv1, 72 h) is > 1000 nM; in the experiment with vCap Cell (Homo sapiens, VCaP, 72 h), > 1000 nM.

Regarding `CC(=O)N1Cc2cc(C3CCN(C(=O)C4CNC4)CC3)cc(N3CCCc4cc(-c5cnn(C)c5)c(C(F)F)cc43)c2C1` [Compound M001079], the concentration for half-maximal inhibition (IC50) in the experiment on 22Rv1 Cell (Homo sapiens, 22Rv1, 72 h) is > 1000 nM; in the experiment with vCap Cell (Homo sapiens, VCaP, 72 h), > 1000 nM.

As to `CNC(=O)N1CCc2cc(C3CCN(C(=O)C4CN(C)C4)CC3)cc(N3CCCc4cc(-c5cnn(C)c5)c(C(F)F)cc43)c2C1` [Compound M001084], the IC50 in the experiment on 22Rv1 Cell (Homo sapiens, 22Rv1, 72 h) was > 1000 nM; in the experiment on vCap Cell (Homo sapiens, VCaP, 72 h) it was > 1000 nM.

For the compound `CNC(=O)N1CCc2cc(C3CCN(C(=O)C4CCN(C)C4)CC3)cc(N3CCCc4cc(-c5cnn(C)c5)c(C(F)F)cc43)c2C1` (stereo not drawn) [Compound M001085], the IC50 with 22Rv1 Cell (Homo sapiens, 22Rv1, 72 h) was > 1000 nM; with vCap Cell (Homo sapiens, VCaP, 72 h), > 1000 nM.

As to `CC(=O)N1Cc2cc([C@H]3CC[C@@H](N)CC3)cc(N3CCCc4cc(-c5cnn(C)c5)c(C(F)F)cc43)c2C1` [Compound M001321], the 50% inhibitory concentration (IC50) in the experiment on 22Rv1 Cell (Homo sapiens, 22Rv1, 72 h) was > 1000 nM; in the experiment with vCap Cell (Homo sapiens, VCaP, 72 h), > 1000 nM.

`CNC(=O)N1CCc2cc(CN3CCC(C(=O)O)CC3)cc(N3CCCc4cc(-c5cnn(C)c5)c(C(F)F)cc43)c2C1` [Compound M001016]: the IC50 in the experiment with 22Rv1 Cell (Homo sapiens, 22Rv1, 72 h) is > 1000 nM; in the experiment with vCap Cell (Homo sapiens, VCaP, 72 h), > 1000 nM.

For `CC(=O)N1Cc2cc(C3CNC(=O)OC3)cc(N3CCCc4cc(-c5cnn(C)c5)c(C(F)F)cc43)c2C1` (stereo not drawn) [Compound M001246], the IC50 in the experiment on 22Rv1 Cell (Homo sapiens, 22Rv1, 72 h) was > 1000 nM; with vCap Cell (Homo sapiens, VCaP, 72 h), > 1000 nM.

The record behind these values is patent US20240109868A1, “EP300/CBP MODULATOR, PREPARATION METHOD THEREFOR AND USE THEREOF” (Miracure Biotechnology Limited, priority 2022, published 2024).
